The nature of data set [1]: Acute toxicity (LD50) in rats. The note with it: rat, in vivo, substantially pure Z-isomeric form.
Data set [2] in a line: Acute toxicity (LD50) in mice. As to conditions: mouse, in vivo, substantially pure Z-isomeric form.
Another data set deals with pulmonary fibrosis. Nature of the data set: Pulmonary fibrosis (bleomycin induced). In kind it is in vivo, New Zealand white rabbits. The note with it: ca. 2.5 to 60 mg/kg/day p.o.; substantially pure Z-isomeric form; vs placebo. How it is done: Testing is carried out in accordance with the general methodology described by G. J. Laurent et al. in Eur. J. Clin. Invest. (1981) 11, 441-448. Pulmonary fibrosis is induced in groups of 4 New Zealand white rabbits (aged 127 days at commencement of the experiment), each weighing 2.0-2.5 kg, by intratracheal instillation of 10 mg/kg bleomycin. The lungs of test animals are examined 2, 4 and 8 weeks later.

Another data set has as its system IL-1. Nature of the data set: Effect on IL-1 synthesis and release (supernatants, homogenates, lysates of human monocytes). Type of data set: cell-based. The note with it: chondrocyte bioassay and RIA. On the procedure: 0.3 ml Phosphate-buffered saline, containing 1 % heat-in-activated AB-human serum, is added to washed adherent human monocytes and the cells are detached using a rubber-policeman. The solution containing the cells is then transferred to two other wells belonging to the same group. This procedure is repeated three times. The final pooled suspension (0.9 ml) is homogenized using a Dounce homogenizer (Kontes Co, Vineland, NJ) by five times 7 strokes with the B-pestle.
The lysate is prepared by adding to the washed human monocyte monolayers 0.3 ml 0.01 % digitonin in water.
50 μl homogenate is diluted to 500 μl with medium and added to confluent chondrocytes to monitor the metalloproteinase inducing activity as a measure of IL-I content.
The content of IL-1 was also determined in the culture media and the cell homogenates and cell lysates using the RIA-test (see 1.3.).

In the next data set the test system is human monocytes. Nature of the data set: Effect on the secretion of monokines (IL-1, TNF-α, IL-6). Type of data set: cell-based. The note with it: IL-1 and TNF-α by RIA, IL-6 by bioassay. How it is done:
Besides IL-1, TNF-α and IL-6 are two well recognized monokines that are released from stimulated monocytes.
Culture media from human monocytes are prepared as described above. The IL-1 and TNF-α content is monitored by the RIA-test, IL-6 by bioassay as disclosed below.
To measure IL-6 in conditioned media from human monocytes, 2.4×10^4 cells/ml B13.29 in 0.2 ml are cultured on 96-well plates (Costar) for 48 h with culture media, diluted in serum free Iscove's modified Dulbecco's medium supplemented with 200 U/ml of recombinant IL-6, 50 μM 2-mercaptoethanol and antibiotics. The proliferation rates are determined using a ^3 H-thymidine pulse (1 μC/well) during the final 6 h. The incorporated radioactivity is collected on filter paper, counted and related to a standard preparation of IL-6.

Another data set deals with monocytes. Nature of the data set: Effect on monocyte adherence. Type of data set: cell-based, human. As to conditions: 4 h; DNA and LDH of adherent monocytes. How it is done: Monocytes of freshly harvested human mononuclear cells are prepared in presence of the compound to be tested or a vehicle. After 4 h the medium is aspirated and the cell monolayer is washed as usual. The adherent monocytes are then lysed using digitonin in water, and the amount of DNA and the activity of the cytosol enzyme LDH is measured.

The next data set concerns IL-1β. Nature of the data set: RIA-Kit IL-1 quantification in human monocyte cultures. In kind it is cell-based. On the procedure:
Mononuclear cells are obtained from the blood of healthy volunteers via centrifugation and cultivated on tissue culture dishes with test compound at varying concentrations [Schnyder et al., J. Immunol., 138, 496-503 (1987)]. The non-adherent lymphocytes are removed after 4 hours by washing several times. Fresh medium, test compound and lipopolysaccharide (LPS) as stimulant are added and the monocytes incubated for further 19 hours. The pooled culture media are diluted 1:10 (v:v) with fresh medium and added to confluent rabbit chondrocytes. MP activity in the chondrocyte culture medium is assayed after a further 2 days. COMPOUNDS OF THE INVENTION, in particular compounds D2 and K1, are active in suppressing monokine release in the above test method at concentrations of the order of from about 30 to about 100 μM. Thus determined ED50 S for the compounds D2 and K1 each in substantially pure Z-isomeric form in a series of 3 or 7 separate experiments each with 3 parallel determinations are, for both compounds, of the order of 60 to 100 μM.
The procedures of example 1.1.b. above are repeated and IL-1 concentrations in recovered, undiluted culture medium determined employing a CISTRON IL-1 radioimmuno assay kit (the CISTRON kit is obtainable from Cistron, 10, Bloomfield Avenue, P.O. Box 2004, Pine Brook, NJ 07 058 USA. It is IL-1β specific and recognises both intra- and extra-cellular material).

The subject of the next data set is lysozyme. Nature of the data set: Secretion of lysozyme from human monocytes. In kind it is cell-based. As to conditions: human monocyte culture media. On the procedure:
Culture media from human monocytes are prepared as disclosed above. Lysozyme and lactate dehydrogenase (LDH) are monitored kinetically by using a Twinreader (Flow Laboratories AG) linked to a personal computer. Samples (50 μl) for LOH are mixed with 200 μl substrate mixture, containing in final concentrations 50 mM phosphate buffer, pH 7.5, 0.8 mM sodium pyruvate, 0.24 mM NADH and 0.04 % bovine albumin and the changes in absorbance at 340 nm are measured 11 times at 1-min intervals. The computer calculates the initial velocities which are used to determine the units. Samples (50 μl) for lysozyme are mixed with 100 μl suspension of 1.2 mg/ml M. Lysodeikticus in 67 mM phosphate buffer pH 6.2 and the changes in turbidity at 492 nm monitored 11 times at 4-min intervals. With every assay series, a calibration curve is made with crystalline hen egg-white lysozyme [J. Schnyder et.al., J. Exp. Med. 148, 435 (1978)]. No significant leakage of LDH from control and treated cell cultures is observed.

The subject of the next data set is periodontal disease. Nature of the data set: Clinical trial III: calcium resorption - periodontal disease. In kind it is in vivo, human. The note with it: ca. 400 to 1200 mg p.o./day or injection ca. 0.5 or 1.0 to 5.0 mg per gum pouch; after ca. 2 to 3 weeks. On the procedure:
COMPOUND OF THE INVENTION, e.g. compound D2 or K1 in substantially pure Z-isomeric form, is administered at dosages of from ca. 400 to 1200 mg/p.o./day administered once or in divided dosages up to 4x daily, or by injection into the gum at the site of disease at dosages of the order of about 0.5 or 1.0 to about 5.0 mg into each gum pouch. The subjects are examined at regular weekly or 2x weekly intervals for disease progression.

Setting [3] is: CISTRON IL-1 radioimmuno assay, human monocytes.

Results on 1 compound are retold here after US4956381A, “Treating tissue calcium depletion or degenerative processes in bone or cartilage” (Sandoz Ltd., priority 1987, dated 1990).

SMILES strings stand for the structures.

For `COC1=Cc2ccccc2/C(=C/C(=O)O)c2ccsc21` [Compound D2, [10-Methoxy-4H-benzo[4,5]cyclohepta[1,2-b]thiophen-4-ylidene]-acetic acid], the LD50 (usually the dose at which mortality reaches 50%) at 168 h in data set [1] (iv, 7 days) turned out to be 50 mg/kg; in data set [2] (iv, 7 days), 163 mg/kg. Besides, the LD50 at 336 h was found to be 1720 mg/kg in data set [1] (po, 14 days) and 1620 mg/kg in data set [2] (po, 14 days). In addition, in the data set with pulmonary fibrosis, the pulmonary fibrosis result is “substantial reduction of pulmonary fibrosis”. In addition, the “levels of IL-1 in the supernatant media” value with IL-1 is on record as “significantly reduce the levels of IL-1 in the supernatant media”. In addition, in the data set on IL-1 (homogenates and lysates), the “mean cellular content of IL-1” value is “only slightly reduced or remains unchanged”. For the same compound, in the data set on human monocytes, the “inhibition of release of IL-1 compared with IL-6 and TNF-α” value is “inhibit the release of IL-1 in a more significant rate than that of IL-6 and TNF-α”. The “adherence of the monocytes” value in the data set on monocytes is on record as “neither the COMPOUNDS OF THE INVENTION, in particular compound D2, nor the vehicle reduce the adherence of the monocytes”. In the data set with IL-1β (setting [3]), the “extra-cellular IL-1 level” value is “extra-cellular content is reduced significantly”. Besides, the “intracellular IL-1 level” value in the data set with IL-1β (setting [3]) is “remain substantially unaffected”. The IC50 with IL-1β (Homo sapiens, Monocyte, 19 h, substantially pure Z-isomeric form, 2-8 experiments, 3 parallel determinations, read-out: ED50 for extra-cellular IL-1 level suppression) is approximately 40 µM. Moreover, the release of lysozyme entry in the data set with lysozyme was “reduces the release of lysozyme only marginally and not under the level of unstimulated controls”. Also, the “condition (periodontal disease)” value in the data set with periodontal disease was “marked improvement in condition after ca. 2 to 3 weeks continuous therapy”.
